Reference: patent US7250389B1, “Antifungal compound and process for producing the same” (Meiji Seika Kaisha, Ltd., priority 1998, dated 2007)
Read-outs that look alike come from different tables or passages of the source.

Columns and labels:
[1] = tested on: cucumber anthracnose fungi (Colletotricum lagenarium); type: in vivo; conditions: 200 ppm spray; cucumber seedlings; seven days after inoculation
[2] = tested on: rice blast fungi (Pyricularia oryzae); type: in vivo
[3] = tested on: cucumber downy mildew (pathogenic fungi: Peseudoperonocpora cubensis); experiment: Test on effect of protecting cucumber against downy mildew; type: in vivo; conditions: 200 ppm spray; cucumber seedlings; seven days after inoculation
Protocol: Cucumber seedlings (variety: Suyo) of first leaf development stage raised in each of plastic pots containing compost were provided. […] The agent was air dried. Thereafter, a conidial suspension, which had been previously prepared by scraping lesion portions on the undersurface of cucumber suffering from cucumber downy mildew (pathogenic fungi: […] cubensis), was evenly inoculated by spraying. The pots were then kept under moist chamber conditions at 20° C. for 24 hr to perform infection. Thereafter, they were transferred to an environment control room kept at 18° C. at night and at 22° C. in the daytime to induce the disease.

[4] = tested on: cucumber anthracnose fungi (Colletotricum lagenarium); experiment: Confirmation test on persistence of the effect of protecting cucumber against anthracnose; type: in vivo; conditions: for Protective value, Plot 2: inoculation on the day subsequent to holding under fluorescent lamp; for Protective value, Plot 3: inoculation on the day subsequent to holding under sunlight; for Protective value, Plot 1: inoculation on the same day as application
Excerpt: Cucumber seedlings (variety: Suyo) of first leaf development stage raised in each of plastic pots containing compost were provided. […] The agent was air dried. On the same day or 24 hr after the air drying, a conidial suspension of cucumber anthracnose fungi (Colletotricum lagenarium), which had been previously cultured in a potato soup agar medium, was evenly inoculated by spraying. […] Experimental Plots: Plot 1: Plot subjected to inoculation on the same day as application: Inoculation was carried out on the same day as the air drying, and the pots were allowed to stand under moist chamber conditions at 26° C. for 24 hr and then allowed to stand for 7 days in an environment control room kept at 18° C. at night and at 25° C. in the daytime. Plot 2: Plot subjected to inoculation on the day subsequent to holding under fluorescent lamp: After the air drying, the pots were placed in an environment control room under an indoor fluorescent lamp (the control room being kept at 18° C. at night and at 25° C. in the daytime with the fluorescent lamp being turned on for 8 hr in the daytime). 24 hr after the application of the agent, inoculation was carried out. Thereafter, the pots were allowed to stand under moist chamber conditions at 26° C. for 24 hr and then allowed to stand for 7 days in an environment control room kept at 18° C. at night and at 25° C. in the daytime. Plot 3: Plot subjected to inoculation on the day subsequent to holding under sunlight: After the air drying, the pots were placed outdoors under sunlight in the daytime (8 hr) and then allowed to stand in an environment control room kept at 18° C. 24 hr after the application of the agent, inoculation was carried out. Thereafter, the pots were allowed to stand under moist chamber conditions at 26° C. for 24 hr and then allowed to stand for 7 days in an environment control room kept at […] at night and at 25° C. in the daytime.

[5] = Photostability test (percentage residue as determined by HPLC); type: physicochemical; conditions: thin film
Protocol: In consideration of use in agricultural chemicals, the following test was carried out to obtain data on photostability against exposure to sunlight. Date and Time of Test: First: 5 hr from 12:00 to 17:00 on May 26, 1997 Second: 6 hr from 10:00 to 16:00 on May 28, 1997 Place: For both tests, Odawara-shi, Kanagawa Weather: For both tests, fine […] Acetone was shortly evaporated. As a result, each sample was brought into a white thin film. The films thus obtained were exposed to sunlight. After the completion of exposure to sunlight, the residual amount of UK-2A and the residual amount of the compound of Example 18 were quantitatively determined by HPLC (column: YMC-PACKODS-AS-56.0×150 mm (A-312)), mobile phase: acetonitrile-water=70 : 30 (v/v), detection wavelength: 254 nm).

[6] = tested on: blast (rice seedlings); experiment: Photostability test (effect of protecting rice seedlings against blast, outdoors); type: in vivo; conditions: 200 ppm, 100 mL per m^2; outdoor rice seedlings; lesion area 19 days after application
Excerpt: Rice seedlings of three-leaf stage (variety: Koshihikari) raised outdoors in an upland field bed (1 m×1 m) for rice seedlings were covered with a vinyl tunnel, only at night, with ears of rice suffering from blast being suspended (height 40 cm) to infect rice seedlings with blast. After the incipient infection was confirmed, agent solutions having an agent concentration of 200 ppm prepared by varying the agent concentration by the method as described in Test Example 2 each were applied in an amount of 100 mL per m^2 by means of a sprayer. For one week after the application of the agent, the rice seedlings were covered with the vinyl tunnel at night to promote the infection. 19 days after the application of the agent, the lesion area of the leaf was measured, and the protective value was calculated by the following equation.
Protective value=(1−average lesion area of treated plot)/lesion area of untreated plot)×100

CCCCCCC1C(=O)OC(C)C(NC(=O)c2cccc(NC=O)c2O)C(=O)OC(C)C1OC(=O)CC(C)C (stereo not drawn) [Antimycin A, reference compound]
Protective value [1]: 17 | Protective value ([2]; 100 ppm spray, rice seedlings, lesions counted seven days after inoculation): 83

CC(C)C(=O)O[C@H]1[C@H](C)OC(=O)[C@@H](NC(=O)c2cccnc2O)COC(=O)[C@@H]1Cc1ccccc1 [Ex. 4, (2R,3R,4S,7S)-7-(2-Hydroxynicotinylamino)-2-benzyl-5,9-dioxa-3-isobutyryloxy-4-methyl-1,6-cyclononanedione]
Protective value [3]: 78 | Protective value ([2]; in vivo): 86

CC(C)C(=O)O[C@H]1[C@H](C)OC(=O)[C@@H](NC(=O)c2cccc(O)n2)COC(=O)[C@@H]1Cc1ccccc1 [Ex. 5, (2R,3R,4S,7S)-7-(6-Hydroxypicolinylamino)-2-benzyl-5,9-dioxa-3-isobutyryloxy-4-methyl-1,6-cyclononanedione]
Protective value [3]: 100 | Protective value ([2]; in vivo): 90

CC(C)C(=O)O[C@H]1[C@H](C)OC(=O)[C@@H](NC(=O)c2nc3ccccc3nc2O)COC(=O)[C@@H]1Cc1ccccc1 [Ex. 8, (2R,3R,4S,7S)-7-(3-Hydroxy-2-quinoxalinecarboxylamino)-2-benzyl-5,9-dioxa-3-isobutyryloxy-4-methyl-1,6-cyclononanedione]
Protective value [1]: 100 | Protective value ([2]; in vivo): 100

COc1ccnc(C(=O)N[C@H]2COC(=O)[C@H](Cc3ccccc3)[C@@H](OC(=O)C(C)C)[C@H](C)OC2=O)c1OC(C)=O [Ex. 18, (2R,3R,4S,7S)-7-(3-Acetoxy-4-methoxypicolinylamino)-2-benzyl-5,9-dioxa-3-isobutyryloxy-4-methyl-1,6-cyclo-nonanedione]
Protective value, Plot 2 ([4]; 10 ppm): 93 | Protective value, Plot 3 ([4]; 10 ppm): 60 | Protective value, Plot 1 ([4]; 10 ppm): 67 | Protective value, Plot 2 ([4]; 30 ppm): 93 | Protective value, Plot 3 ([4]; 30 ppm): 80 | Protective value, Plot 1 ([4]; 30 ppm): 67 | Protective value, Plot 2 ([4]; 100 ppm): 93 | Protective value, Plot 3 ([4]; 100 ppm): 93 | Protective value, Plot 1 ([4]; 100 ppm): 87 | residual effect under sunlight compared with UK-2A ([4]; plot 3): much superior to UK-2A | difference in protective value between UK-2A and the compound of Example 18 ([4]; plots 1 and 2): no significant difference | Residual amount after exposure to sunlight ([5]; First test: 5 hr sunlight): 98% | Residual amount after exposure to sunlight ([5]; Second test: 6 hr sunlight): 93% | Protective value [6]: 95

COc1cccc(C(=O)N[C@H]2COC(=O)[C@H](Cc3ccccc3)[C@@H](OC(=O)C(C)C)[C@H](C)OC2=O)c1O [Ex. 38, (2R,3R,4S,7S)-7-(3-Methoxysalicylamino)-2-benzyl-5,9-dioxa-3-isobutyryloxy-4-methyl-1,6-cyclononanedione]
Protective value ([2]; in vivo): 83

CC(C)C(=O)O[C@H]1[C@H](C)OC(=O)[C@@H](NC(=O)c2ccccc2O)COC(=O)[C@@H]1Cc1ccccc1 [Ex. 39, (2R,3R,4S,7S)-7-Salicylamino-2-benzyl-5,9-dioxa-3-isobutyryloxy-4-methyl-1,6-cyclononanedione]
Protective value ([2]; in vivo): 98

CC(C)C(=O)O[C@H]1[C@H](C)OC(=O)[C@@H](NC(=O)c2cccc([N+](=O)[O-])c2O)COC(=O)[C@@H]1Cc1ccccc1 [Ex. 40, (2R,3R,4S,7S)-7-(3-Nitrosalicyl)amino-2-benzyl-5,9-dioxa-3-isobutyryloxy-4-methyl-1,6-cyclononanedione]
Protective value [3]: 100

CC(C)C(=O)O[C@H]1[C@H](C)OC(=O)[C@@H](NC(=O)c2cccc(N)c2O)COC(=O)[C@@H]1Cc1ccccc1 [Ex. 41, (2R,3R,4S,7S)-7-(3-Aminosalicyl)amino-2-benzyl-5,9-dioxa-3-isobutyryloxy-4-methyl-1,6-cyclononanedione]
Protective value [1]: 100 | Protective value [3]: 88 | Protective value ([2]; in vivo): 86

CC(C)C(=O)O[C@H]1[C@H](C)OC(=O)[C@@H](NC(=O)c2cc(Cl)ccc2O)COC(=O)[C@@H]1Cc1ccccc1 [Ex. 46, (2R,3R,4S,7S)-7-(5-Chlorosalicyl)amino-2-benzyl-5,9-dioxa-3-isobutyryloxy-4-methyl-1,6-cyclononanedione]
Protective value [1]: 100

CC(C)C(=O)O[C@H]1[C@H](C)OC(=O)[C@@H](NC(=O)c2cc(NC=O)ccc2O)COC(=O)[C@@H]1Cc1ccccc1 [Ex. 52, (2R,3R,4S,7S)-7-(5-Formylaminosalicyl)amino-2-benzyl-5,9-dioxa-3-isobutyryloxy-4-methyl-1,6-cyclononanedione]
Protective value [3]: 100

COc1ccnc(C(=O)N[C@H]2COC(=O)[C@H](Cc3ccccc3)[C@@H](OC(=O)C(C)C)[C@H](C)OC2=O)c1O [UK-2A, reference compound]
Protective value, Plot 2 ([4]; 10 ppm): 93 | Protective value, Plot 3 ([4]; 10 ppm): 27 | Protective value, Plot 1 ([4]; 10 ppm): 80 | Protective value, Plot 2 ([4]; 30 ppm): 100 | Protective value, Plot 3 ([4]; 30 ppm): 60 | Protective value, Plot 1 ([4]; 30 ppm): 100 | Residual amount after exposure to sunlight ([5]; First test: 5 hr sunlight): 33% | Residual amount after exposure to sunlight ([5]; Second test: 6 hr sunlight): 64% | Protective value [6]: 63
